# Like-named read-outs stand apart in the source and are kept apart here.
# Test system: SSTR2 mutants
# Test: SSTRs Gi-mediated cAMP inhibition, GloSensor, HEK293, 5 μM forskolin, 15 min room temperature (SSTR2 mutants)
# Type: cell-based, human
# Design: Best-fit Bottom, cAMP inhibition / Best-fit Top, cAMP inhibition / Span, cAMP inhibition / Bottom (best-fit value) / Top (best-fit value) / Span (best-fit value) / Span (best-fit) / Bottom (best-fit) / Top (best-fit) / Best-fit Bottom / Best-fit Top / Best-fit Span / Top / Span: scale not given here
# Protocol: The levels of the intracellular 3′, 5′-cyclic AMP (cAMP) were measured by the GloSensor cAMP assay (Promega) as described in the previous studies[28],[41] which has been widely used. The human full-length SSTRs and mutants were cloned into the pcDNA3.1+ vector with a HA signal sequence followed by a Flag tag at the N-terminus. HEK293 cells (ATCC, CRL-1573) were seeded into 6-well microplates at a density of 1.0 × 10^6 cells/well and cultured for 24 h at 37 °C with 5% CO2. Cells were then co-transfected with SSTR wild-type or mutants and GloSensor plasmids. After 24 h of transfection, the cells were dissociated with TrypLE™ Express Enzyme (1X) (Thermo Fisher Scientific) and collected by centrifugation at 500 × g for 5 min. Then the collected cells were suspended in Hank’s balanced salt solution [HBSS (Thermo Fisher Scientific)] supplemented with […] (YEASEN), and then the suspension cells were seeded into 96-well plates with 90 μl/well. After incubating at room temperature for 40 min, 5 μM forskolin and ligands diluted in HBSS were added to each well and the plates were incubated at room temperature for 15 min. […] were measured using the Synergy H1 microplate reader (BioTek) and the data presented are means of at least three independent experiments.
smiles,measurement,setting,value
C[C@@H](O)[C@@H]1NC(=O)[C@H](CCCCN)NC(=O)[C@@H](Cc2c[nH]c3ccccc23)NC(=O)[C@H](Cc2ccccc2)NC(=O)[C@@H](NC(=O)[C@H](N)Cc2ccccc2)CSSC[C@@H](C(=O)N[C@H](CO)[C@@H](C)O)NC1=O [octreotide],"Best-fit Top, cAMP inhibition","SSTR2 I195A-1, run 1",99.51
same,"LogEC50, cAMP inhibition","SSTR2 I195A-1, run 1",-8.167
same,"Span, cAMP inhibition","SSTR2 I195A-1, run 1",98.37
same,EC50,"SSTR2 I195A-1, run 1, read-out: EC50, cAMP inhibition",6.8 nM
same,"Best-fit Bottom, cAMP inhibition","SSTR2 I195A-2, run 2",-0.2331
same,"Best-fit Top, cAMP inhibition","SSTR2 I195A-2, run 2",94.69
same,"LogEC50, cAMP inhibition","SSTR2 I195A-2, run 2",-8.189
same,"Span, cAMP inhibition","SSTR2 I195A-2, run 2",94.92
same,EC50,"SSTR2 I195A-2, run 2, read-out: EC50, cAMP inhibition",6.47 nM
same,"Best-fit Bottom, cAMP inhibition","SSTR2 I195A-3, run 3",2.536
same,"Best-fit Top, cAMP inhibition","SSTR2 I195A-3, run 3",107
same,"LogEC50, cAMP inhibition","SSTR2 I195A-3, run 3",-8.29
same,"Span, cAMP inhibition","SSTR2 I195A-3, run 3",104.4
same,EC50,"SSTR2 I195A-3, run 3, read-out: EC50, cAMP inhibition",5.13 nM
same,"Best-fit Bottom, cAMP inhibition","SSTR2 L99A-1, run 1",-0.05878
same,"Best-fit Top, cAMP inhibition","SSTR2 L99A-1, run 1",83.27
same,"LogEC50, cAMP inhibition","SSTR2 L99A-1, run 1",-8.764
same,"Span, cAMP inhibition","SSTR2 L99A-1, run 1",83.33
same,EC50,"SSTR2 L99A-1, run 1, read-out: EC50, cAMP inhibition",1.72 nM
same,"Best-fit Bottom, cAMP inhibition","SSTR2 L99A-2, run 2",3.887
same,"Best-fit Top, cAMP inhibition","SSTR2 L99A-2, run 2",89.82
same,"LogEC50, cAMP inhibition","SSTR2 L99A-2, run 2",-8.724
same,"Span, cAMP inhibition","SSTR2 L99A-2, run 2",85.94
same,EC50,"SSTR2 L99A-2, run 2, read-out: EC50, cAMP inhibition",1.89 nM
same,"Best-fit Bottom, cAMP inhibition","SSTR2 L99A-3, run 3",6.223
same,"Best-fit Top, cAMP inhibition","SSTR2 L99A-3, run 3",104
same,"LogEC50, cAMP inhibition","SSTR2 L99A-3, run 3",-9.836
same,"Span, cAMP inhibition","SSTR2 L99A-3, run 3",97.82
same,EC50,"SSTR2 L99A-3, run 3, read-out: EC50, cAMP inhibition",0.146 nM
same,"Best-fit Bottom, cAMP inhibition","SSTR2 Q102A-1, run 1",2.423
same,"Best-fit Top, cAMP inhibition","SSTR2 Q102A-1, run 1",108.7
same,"LogEC50, cAMP inhibition","SSTR2 Q102A-1, run 1",-7.926
same,"Span, cAMP inhibition","SSTR2 Q102A-1, run 1",106.2
same,EC50,"SSTR2 Q102A-1, run 1, read-out: EC50, cAMP inhibition",11.9 nM
same,"Best-fit Bottom, cAMP inhibition","SSTR2 Q102A-2, run 2",0.4721
same,"Best-fit Top, cAMP inhibition","SSTR2 Q102A-2, run 2",108.9
same,"LogEC50, cAMP inhibition","SSTR2 Q102A-2, run 2",-7.92
same,"Span, cAMP inhibition","SSTR2 Q102A-2, run 2",108.4
same,EC50,"SSTR2 Q102A-2, run 2, read-out: EC50, cAMP inhibition",12 nM
same,"Best-fit Bottom, cAMP inhibition","SSTR2 Q102A-3, run 3",3.028
same,"Best-fit Top, cAMP inhibition","SSTR2 Q102A-3, run 3",105.6
same,"LogEC50, cAMP inhibition","SSTR2 Q102A-3, run 3",-7.863
same,"Span, cAMP inhibition","SSTR2 Q102A-3, run 3",102.6
same,EC50,"SSTR2 Q102A-3, run 3, read-out: EC50, cAMP inhibition",13.7 nM
same,"Best-fit Top, cAMP inhibition","SSTR2 T194A-1, run 1",84.79
same,"LogEC50, cAMP inhibition","SSTR2 T194A-1, run 1",-7.026
same,"Span, cAMP inhibition","SSTR2 T194A-1, run 1",77.01
same,EC50,"SSTR2 T194A-1, run 1, read-out: EC50, cAMP inhibition",94.2 nM
same,"Best-fit Top, cAMP inhibition","SSTR2 T194A-2, run 2",94.26
same,"LogEC50, cAMP inhibition","SSTR2 T194A-2, run 2",-7.558
same,"Span, cAMP inhibition","SSTR2 T194A-2, run 2",87.81
same,EC50,"SSTR2 T194A-2, run 2, read-out: EC50, cAMP inhibition",27.7 nM
same,"Best-fit Top, cAMP inhibition","SSTR2 T194A-3, run 3",95.49
same,"LogEC50, cAMP inhibition","SSTR2 T194A-3, run 3",-7.626
same,"Span, cAMP inhibition","SSTR2 T194A-3, run 3",91.25
same,EC50,"SSTR2 T194A-3, run 3, read-out: EC50, cAMP inhibition",23.7 nM
same,"Best-fit Bottom, cAMP inhibition","SSTR2 V103A-1, run 1",3.112
same,"Best-fit Top, cAMP inhibition","SSTR2 V103A-1, run 1",97.5
same,"LogEC50, cAMP inhibition","SSTR2 V103A-1, run 1",-8.546
same,"Span, cAMP inhibition","SSTR2 V103A-1, run 1",94.39
same,EC50,"SSTR2 V103A-1, run 1, read-out: EC50, cAMP inhibition",2.85 nM
same,"Best-fit Bottom, cAMP inhibition","SSTR2 V103A-2, run 2",-14.84
same,"Best-fit Top, cAMP inhibition","SSTR2 V103A-2, run 2",85.83
same,"LogEC50, cAMP inhibition","SSTR2 V103A-2, run 2",-8.054
same,"Span, cAMP inhibition","SSTR2 V103A-2, run 2",100.7
same,EC50,"SSTR2 V103A-2, run 2, read-out: EC50, cAMP inhibition",8.84 nM
same,"Best-fit Bottom, cAMP inhibition","SSTR2 V103A-3, run 3",-3.777
same,"Best-fit Top, cAMP inhibition","SSTR2 V103A-3, run 3",89.06
same,"LogEC50, cAMP inhibition","SSTR2 V103A-3, run 3",-7.947
same,"Span, cAMP inhibition","SSTR2 V103A-3, run 3",92.84
same,EC50,"SSTR2 V103A-3, run 3, read-out: EC50, cAMP inhibition",11.3 nM
same,"Best-fit Bottom, cAMP inhibition","SSTR2 Y50A-1, run 1",9.945
same,"Best-fit Top, cAMP inhibition","SSTR2 Y50A-1, run 1",106.2
same,"LogEC50, cAMP inhibition","SSTR2 Y50A-1, run 1",-9.897
same,"Span, cAMP inhibition","SSTR2 Y50A-1, run 1",96.25
same,"Best-fit Bottom, cAMP inhibition","SSTR2 Y50A-2, run 2",-3.529
same,"Best-fit Top, cAMP inhibition","SSTR2 Y50A-2, run 2",103.6
same,"LogEC50, cAMP inhibition","SSTR2 Y50A-2, run 2",-10.54
same,"Span, cAMP inhibition","SSTR2 Y50A-2, run 2",107.2
same,EC50,"SSTR2 Y50A-2, run 2, read-out: EC50, cAMP inhibition",0.0288 nM
same,"Best-fit Bottom, cAMP inhibition","SSTR2 Y50A-3, run 3",9.945
same,"Best-fit Top, cAMP inhibition","SSTR2 Y50A-3, run 3",106.2
same,"LogEC50, cAMP inhibition","SSTR2 Y50A-3, run 3",-9.897
same,"Span, cAMP inhibition","SSTR2 Y50A-3, run 3",96.25
same,EC50,"SSTR2 Y50A-3, run 3, read-out: EC50, cAMP inhibition",0.127 nM
same,Emax,"Suppl. Tables 4/5, SSTR2 T194(45.51)H, n=3",88.27±7.62 %WT SSTR2
same,Emax,"Suppl. Tables 4/5, SSTR2 V103(2.64)N, n=3",94.00±3.65 %WT SSTR2
same,EC50,"Suppl. Tables 4/5, SSTR2 V103(2.64)N, n=3, read-out: EC50",0.23 nM
same,Receptor activation of mutant,T194(45.51)H in SSTR2,significantly reduced receptor activation
same,Bottom (best-fit value),"T194A-1, run 1",7.78
same,Bottom (best-fit value),"T194A-2, run 2",6.447
same,Bottom (best-fit value),"T194A-3, run 3",4.244
same,Bottom (best-fit value),"T287A-1, run 1",2.841
same,LogEC50 (best-fit value),"T287A-1, run 1",-9.206
same,Span (best-fit value),"T287A-1, run 1",86.99
same,Top (best-fit value),"T287A-1, run 1",89.83
same,EC50,"T287A-1, run 1, read-out: EC50 (best-fit value)",0.623 nM
same,Bottom (best-fit value),"T287A-2, run 2",-10.83
same,LogEC50 (best-fit value),"T287A-2, run 2",-9.285
same,Span (best-fit value),"T287A-2, run 2",118.8
same,Top (best-fit value),"T287A-2, run 2",108
same,EC50,"T287A-2, run 2, read-out: EC50 (best-fit value)",0.519 nM
same,Bottom (best-fit value),"T287A-3, run 3",2.734
same,LogEC50 (best-fit value),"T287A-3, run 3",-9.182
same,Span (best-fit value),"T287A-3, run 3",94.95
same,Top (best-fit value),"T287A-3, run 3",97.68
same,EC50,"T287A-3, run 3, read-out: EC50 (best-fit value)",0.658 nM
same,EC50 of mutant versus wild-type,V103(2.64)N mutant of SSTR2,retained a similar EC50 as wild-type receptor
same,Bottom (best-fit value),"W188A-1, run 1",-1.717
same,LogEC50 (best-fit value),"W188A-1, run 1",-9.896
same,Span (best-fit value),"W188A-1, run 1",106.4
same,Top (best-fit value),"W188A-1, run 1",104.7
same,EC50,"W188A-1, run 1, read-out: EC50 (best-fit value)",0.127 nM
same,Bottom (best-fit value),"W188A-2, run 2",1.331
same,LogEC50 (best-fit value),"W188A-2, run 2",-10.14
same,Span (best-fit value),"W188A-2, run 2",108.6
